Here are results for 2 compounds from publication PMC2956624, “Context-Dependent Cell Cycle Checkpoint Abrogation by a Novel Kinase Inhibitor” (PLoS ONE, 2010).

The test system of this assay is HT29 cells. Kind of assay: Flow cytometry cell cycle profiles, HT29. The note with it: for abrogation of DNA damage induced cell cycle arrest: DNA damaging agent 16 hours, then PF-477736 (400 nM) or VX680 (400 nM) 48 hours. The class given is cell-based, human. The procedure:
Fixed cells were analyzed by flow cytometry.
All cells were harvested, fixed in 70% ethanol and stained with propidium iodide/RNase A. Cell cycle profiles were examined by flow cytometry using a FACSArray cytometer (BD) and FACSDiva software (BD).
In general terms: A flow cytometer gives signals particle by particle.

As to `Cc1cc(Nc2cc(N3CCN(C)CC3)nc(Sc3ccc(NC(=O)C4CC4)cc3)n2)[nH]n1` [VX680], the “abrogation of DNA damage induced cell cycle arrest” value is reported as “unable to override the DNA damage induced arrest”. For the same compound, for the setting “100 nM paclitaxel 18 hours, then 24 hours with 200 nM VER-150548 or 400 nM VX680 (DMSO 65.4%)”, the “cells remaining arrested in G2 or M” value is reported as 28.5%. Under “unperturbed cells, 8 to 48 hours”, the “cell cycle effect as single agent” value is “caused G2/M arrest at early time points and subsequent reduplication following extended incubation”.
For the compound `Cn1cc(-c2[nH]c3cc(NC(=O)[C@H](N)C4CCCCC4)cc4c3c2C=NNC4=O)cn1` [PF-477736], the “abrogation of DNA damage induced cell cycle arrest” value is on record as “abrogated DNA damage induced cell cycle arrest”.
